Data from US20250101063A1, “POLYPEPTIDE COMPOUND AND USE THEREOF IN TREATMENT OF ENTERITIS” (Sichuan Gooddoctor Panxi Pharmaceutical Co., Ltd., priority 2022, published 2025).
“Also recorded” adds a separate entry of the source.

Tests used:
[1] = test system: zebrafish model of intestinal mucosal injury; test: Efficacy in relieving colitis: intestinal lumen area in TNBS-treated zebrafish; type: in vivo; settings: for Intestinal lumen area (pixels, mean ± SE): 2 days after TNBS, n = 10
Method: Experimental animals: Wild-type AB strain zebrafishes, bred by natural pair mating. Zebrafishes aged 3 days post fertilization (3 dpf). Zebrafishes were kept in fish farming water at 28° C. (water quality: 200 mg of instant sea salt in each 1L of reverse osmosis water, with the conductivity of 450-550 μS/cm; pH of 6.5-8.5; and hardness of 50-100 mg/L CaCO3), the experimental animal use license number is: SYXK (Zhe) 2012-0171, and the breeding management met the requirements of the international AAALAC certification (certification number: 001458).
(1) Grouping: Polypeptide group: prepared into a stock solution of 20.0 mg/mL with ultrapure water and stored at −20° C.
Positive control group: prednisone, as white powder, with batch number C10016501, Shanghai Macklin Biochemical Technology Co., Ltd., stored at 4° C.; prepared into a 15.0 mg/mL stock solution with DMSO, and stored in aliquots at −20° C.
Normal control group and model control group.
(2) Experimental method: 3 dpf wild-type AB strain zebrafishes were randomly selected and placed in a 6-well plate, with 30 zebrafishes in each well (experimental group). Except for the normal control group, all other experimental groups were given TNBS in water to establish the zebrafish model of intestinal mucosal injury. After 2 days of treatment at 28° C., TNBS was removed, and polypeptide compound in water (at concentrations shown in Table 4) was given respectively, and for the positive control, prednisone was 15.0 μg/mL. A normal control group (healthy group) and a model control group (intestinal mucosal injury group) were set up at the same time. The capacity of each well (experimental group) was 3 mL. After 2 days of treatment at 28° C., 10 zebrafishes were randomly selected from each experimental group and photographed under a dissecting microscope. NIS-Elements D 3.20 advanced image processing software was used to analyze and collect data, and the intestinal lumen area of the zebrafish was analyzed. The statistical analysis results of this indicator were used to evaluate the efficacy of the samples in relieving colitis. The statistics results were expressed as mean±SE. SPSS26.0 software was used for statistical analysis, and p<0.05 indicates statistically significant difference.
The concentration gradient of the test substances set in this experimental system was 250 μg/mL, 500 μg/mL, and 1000 μg/mL. […] When the concentration of the test substance was further increased for intervention, the death phenomenon of zebrafishes was found in the group; therefore, in the subsequent rounds of activity evaluation, each test polypeptide compound was uniformly administered at 1000 μg/mL for intervention.

[2] = test system: TNBS-induced model of acute inflammatory bowel disease (UC) in SD rat; test: TNBS-induced model of acute inflammatory bowel disease (UC) in SD rat; type: in vivo; settings: for Body weight, Grouping day (D 0, g): D 0, before treatment; for Body weight, Grouping day (D 0, g) / DAI score, Experimental day 1 (D 1, point) / DAI score, Experimental day 3 (D 3, point) / Body weight, Experimental day 5 (D 5, g): enema once a day; for Body weight, Grouping day (D 0, g) / DAI score AUC(0-14 d) (D 0-D 14) / Weight change range (D 0-D 14, %) / DAI score, Experimental day 1 (D 1, point) / DAI score, Experimental day 3 (D 3, point) / Body weight, Experimental day 5 (D 5, g) / Body weight, Experimental endpoint (D 14, g) / DAI score, Experimental endpoint (D 14, point) / Colon length (cm) / Colon ulcer and inflammation score (point) / Colon ulcer area (cm^2) / Colon weight / Colon weight/length ratio (100* g/cm) / Colonic adhesion score (point): mean ± SD
From the text: In this experiment, a rat model of ulcerative colitis was established by administering trinitrobenzene sulfonic acid (TNBS) to laboratory animal male SD rats for a single enema intervention. Acute colitis in rats induced by trinitrobenzene sulfonic acid (TNBS) is an immune response induced by cytokines secreted by Th1 type cells. […] This model is simple to establish and has good reproducibility. It is an experimental animal model widely used in evaluating drugs for the treatment of inflammatory bowel disease. […] During the experimental treatment period (D1-D14), the body weight and general clinical observation indicators (including but not limited to food intake, water intake, activity level and defecation, etc.) of the animals in each experimental group were dynamically collected. At the same time, based on the relevant scoring standards for the disease activity index of ulcerative colitis, the reactivity such as the weight loss degree, stool morphology and trait, and bloody stool of the animals in each experimental group after TNBS induction were scored, and the disease activity index (DAI) of ulcerative colitis was calculated, once a day for 14 consecutive days. At the end point of the experiment, colon tissues of animals in each experimental group were collected, and the length and weight of the colon were measured and then the non-autopsy images were collected. Then the colon was cut open along the intestinal wall longitudinally and autopsy images were collected. Based on the “Criteria for Scoring Gross Morphological Manifestations of the Colon”, the gross damage with respect to colon adhesions, colon ulcers and inflammation of animals in each experimental group was observed and scored. Ulcer images were collected under a stereomicroscope and the area of colon ulcer foci was calculated, followed by routine fixation.

[3] = high dose group (compound 1: 6.0 mg/kg; compound 6: 2.8 mg/kg)
[4] = low dose group (compound 1: 3.0 mg/kg; compound 6: 1.4 mg/kg)
[5] = high dose group (compound 1: 6.0 mg/kg; compound 6: 2.8 mg/kg), enema once a day 14 days
[6] = low dose group (compound 1: 3.0 mg/kg; compound 6: 1.4 mg/kg), enema once a day 14 days
[7] = experimental endpoint, high dose group (compound 1: 6.0 mg/kg; compound 6: 2.8 mg/kg), enema once a day 14 days
[8] = experimental endpoint, low dose group (compound 1: 3.0 mg/kg; compound 6: 1.4 mg/kg), enema once a day 14 days
[9] = set treatment regimen, enema once a day 14 days, vs model control group
[10] = set treatment regimen, experimental endpoint, vs model control group

H-KEPVPQAKPRKVAAQ-OH [Compound 1]
Intestinal lumen area (pixels, mean ± SE) ([1]; 250 μg/mL in water): 39333 ± 2095 pixels | Intestinal lumen area (pixels, mean ± SE) ([1]; 500 μg/mL in water): 26497 ± 1245 pixels | Intestinal lumen area (pixels, mean ± SE) ([1]; 1000 μg/mL in water): 26174 ± 1898 pixels | Activity in relieving intestinal lumen dilatation ([1]; 1000 μg/mL, significance vs model control group of the same batch): *** (*** p < 0.001) | Intestinal lumen area compared with the model control group (in words) ([1]; 250, 500, 1000 μg/mL, Table 4): significant statistical differences compared with the model control group | Body weight, Grouping day (D 0, g) [2, 3]: 279.99 ± 10.57 g | Body weight, Grouping day (D 0, g) [2, 4]: 274.40 ± 9.10 g | DAI score AUC(0-14 d) (D 0-D 14) [2, 5]: 30.65 ± 2.93^####+++ | Weight change range (D 0-D 14, %) [2, 5]: 6.97 ± 4.73 % | DAI score AUC(0-14 d) (D 0-D 14) [2, 6]: 37.65 ± 3.60 | Weight change range (D 0-D 14, %) [2, 6]: 7.96 ± 7.32 % | DAI score, Experimental day 1 (D 1, point) [2, 3]: 3.9 ± 0.6 point | DAI score, Experimental day 1 (D 1, point) [2, 4]: 3.5 ± 1.3 point | DAI score, Experimental day 3 (D 3, point) [2, 3]: 4.3 ± 1.8 point | DAI score, Experimental day 3 (D 3, point) [2, 4]: 4.9 ± 1.6 point | Body weight, Experimental day 5 (D 5, g) [2, 3]: 263.90 ± 15.38 g | Body weight, Experimental day 5 (D 5, g) [2, 4]: 251.65 ± 18.30 g | Body weight, Experimental endpoint (D 14, g) [2, 5]: 299.37 ± 14.64 g | DAI score, Experimental endpoint (D 14, point) [2, 5]: 0.1 ± 0.3 point | Body weight, Experimental endpoint (D 14, g) [2, 6]: 296.07 ± 19.58 g | DAI score, Experimental endpoint (D 14, point) [2, 6]: 0.5 ± 0.7 point | Colon length (cm) [2, 7]: 16.55 ± 1.67 cm | Colon ulcer and inflammation score (point) [2, 7]: 1.40 ± 0.84^####++ point | Colon ulcer area (cm^2) [2, 7]: 2.15 ± 0.74^###+ cm^2 | Colon weight [2, 7]: 2.20 ± 0.28 g | Colon weight/length ratio (100* g/cm) [2, 7]: 13.37 ± 1.93^####+ 100* g/cm | Colonic adhesion score (point) [2, 7]: 0.60 ± 0.52 point | Colon length (cm) [2, 8]: 15.34 ± 1.99 cm | Colon ulcer and inflammation score (point) [2, 8]: 2.50 ± 0.85 point | Colon ulcer area (cm^2) [2, 8]: 3.77 ± 1.91^# cm^2 | Colon weight [2, 8]: 2.48 ± 0.46 g | Colon weight/length ratio (100* g/cm) [2, 8]: 16.40 ± 3.29^### 100* g/cm | Colonic adhesion score (point) [2, 8]: 1.10 ± 0.57 point | Overall therapeutic effect in the rat model of ulcerative colitis (in words) ([2]; set treatment regimen): significant therapeutic effects | Effect on disease progression of ulcerative colitis / DAI scores (in words) [2, 9]: significant improvement effect on the disease progression of ulcerative colitis | Effect on weight gain inhibition / weight loss response of model animals (in words) [2, 9]: significant effect of improving the weight gain inhibition; also recorded: significant improvement effect on the weight loss response | Effect on colon atrophy process / colon weight/length ratio (in words) [2, 10]: colon weight/length ratio was significantly decreased | Effect on gross colon injury status (colonic adhesion, ulcer and inflammation) and colon ulcer area (in words) [2, 10]: obvious therapeutic effects; also recorded: significant therapeutic effects on the gross damage manifestation of the colon
